pIC50: −log10 of the molar value.
system: Aβ42; assay: In vitro cell screening assay; quantification of Aβ (1-42) peptide by sandwich ELISA; type: cell-based; conditions: Human neuroglioma H4 cells stably expressing human wild type APP751; compounds 0.003-10 μM, incubated overnight (16-18 h); Aβ42 in supernatant by sandwich ELISA; normalized to DMSO and DAPT; read-out: Aβ42 H4 Prot Fre IC50
Description: Human neuroglioma H4 cells were transfected with a pcDNA3.1 plasmid expressing human wild type APP751 cDNA and a stable cell line was generated using G418 selection. Cells were plated at 15,000 cells/well in Costar 96-well plates and placed at 37° C. and 5% CO2. Six hours after plating, cells were washed three times with Pro293™ chemically defined medium, followed by addition of compounds (0.003-10 μM, final DMSO concentration of 0.33%). Plates were incubated overnight (16-18 h) and supernatant was removed for quantification of Aβ peptides by sandwich ELISA. Cytotoxicity was evaluated using Cell-Titer 96W AQueous One Solution Cell Proliferation Assay according to the manufacturer's protocol.
Aβ peptide levels were quantified by sandwich ELISA. 96-well plates were coated with C-terminal specific Aβ antibodies recognizing either Aβ37, Aβ38, Aβ40, Aβ42, Aβ43 or a N-terminal specific Aβ antibody to detect Aβ 1-x. Plates were then blocked overnight at 4° C. with 1% bovine serum albumin (BSA) in PBS-T. Plates were washed and 100 μl of cultured cell supernatant or synthetic Aβ peptide standards and a detection antibody (4G8-HRP) were applied to the blocked plate and incubated overnight at 4° C. The next day, wells were washed before the addition of detection substrate (TMB peroxidase). Plates were then read for absorbance at 450 nm on a Molecular Devices SpectraMax M5e Microplate Reader.
Compound-treated samples were normalized to samples treated with DMSO alone (no inhibition) and to samples treated with DAPT. IC50 values were calculated from values reported as percent of DMSO controls using nonlinear regression, based on a sigmoidal dose—response (variable slope) model. […] used for calculation.

| SMILES | pIC50 |
| --- | --- |
| COc1nc(C2=NOC(C)C(c3cccc(Cl)c3)N2)ccc1-n1cnc(Cl)c1 (single isomer, unassigned; (+)) [Example 47B, (+)-3-(5-(4-chloro-1H-imidazol-1-yl)-6-methoxypyridin-2-yl)-5-(3-chlorophenyl)-6-methyl-5,6-dihydro-4H-1,2,4-oxadiazine] | 7.44 |
| COc1nc(C2=NOC(C)C(c3cccc(Cl)c3)N2)ccc1-n1cnc(C)n1 (single isomer, unassigned; (+)) [Example 53B, (+)-5-(3-chlorophenyl)-3-(6-methoxy-5-(3-methyl-1H-1,2,4-triazol-1-yl)pyridin-2-yl)-6-methyl-5,6-dihydro-4H-1,2,4-oxadiazine] | 6.77 |
| COc1nc(C2=NOC(C3CC3)C(c3cc4ccccc4o3)N2)ccc1-n1cnc(C)c1 (single isomer, unassigned; (-)) [Example 61B, (−)-5-(benzofuran-2-yl)-6-cyclopropyl-3-(6-methoxy-5-(4-methyl-1H-imidazol-1-yl)pyridin-2-yl)-5,6-dihydro-4H-1,2,4-oxadiazine] | 6.22 |
| COc1nc(C2=NOC(C)(C)C(c3ccccc3)N2)ccc1-n1cnc(C)c1 (single isomer, unassigned; (-)) [Example 22A, (−)-3-[6-methoxy-5-(4-methyl-1H-imidazol-1-yl)pyridin-2-yl]-6,6-dimethyl-5-phenyl-5,6-dihydro-4H-1,2,4-oxadiazine] | < 5.52 |
| COc1nc(C2=NO[C@H](c3ccc(Cl)cc3)[C@H](C)N2)ccc1-n1cnc(C)c1 [Example 71A, (5S,6R)-6-(4-chlorophenyl)-3-(6-methoxy-5-(4-methyl-1H-imidazol-1-yl)pyridin-2-yl)-5-methyl-5,6-dihydro-4H-1,2,4-oxadiazine] | 7.90 |
| COc1nc(C2=NOC(C3CC3)C(c3cn(C)c4nccc(F)c34)N2)ccc1-n1cnc(C)c1 (single isomer, unassigned; (+)) [Example 63A, (+)-6-cyclopropyl-5-(4-fluoro-1-methyl-1H-pyrrolo [2,3-b]pyridin-3-yl)-3-(6-methoxy-5-(4-methyl-1H-imidazol-1-yl)pyridin-2-yl)-5,6-dihydro-4H-1,2,4-oxadiazine] | 5.98 |
| COc1nc(C2=NO[C@H](C)[C@H](c3ccc(Cl)cc3)N2)ccc1-n1cnc(C)c1 [Example 18B, (+)-(5S,6R)-5-(4-chlorophenyl)-3-[6-methoxy-5-(4-methyl-1H-imidazol-1-yl)pyridin-2-yl]-6-methyl-5,6-dihydro-4H-1,2,4-oxadiazine] | 7.72 |
| COc1nc(C2=NO[C@@H](C)[C@@H](c3ccc(Cl)cc3)N2)ccc1-n1cnc(C)c1 [Example 18A, (−)-(5R,6S)-5-(4-chlorophenyl)-3-[6-methoxy-5-(4-methyl-1H-imidazol-1-yl)pyridin-2-yl]-6-methyl-5,6-dihydro-4H-1,2,4-oxadiazine] | 5.65 |
| COc1nc(C2=NOCC(c3cn(C)c4ccc(C5CCOCC5)cc34)N2)ccc1-n1cnc(C)c1 (single isomer, unassigned; (-)) [Example 29A, (−)-3-(6-methoxy-5-(4-methyl-1H-imidazol-1-yl)pyridin-2-yl)-5-(1-methyl-5-(tetrahydro-2H-pyran-4-yl)-1H-indol-3-yl)-5,6-dihydro-4H-1,2,4-oxadiazine] | 6.18 |
| COc1nc(C2=NOCC(c3c4n(c5ccccc35)CCOC4)N2)ccc1-n1cnc(C)c1 (single isomer, unassigned; (-)) [Example 30A, (−)-10-(3-(6-methoxy-5-(4-methyl-1H-imidazol-1-yl)pyridin-2-yl)-5,6-dihydro-4H-1,2,4-oxadiazin-5-yl)-3 ,4-dihydro-1H-[1,4]oxazino[4,3-a]indole] | 6.49 |
| COc1nc(C2=NOC(C)C(c3cccc(Cl)c3)N2)ccc1-c1ccnc(C)c1 (single isomer, unassigned; (-)) [Example 49A, (−)-5-(3-chlorophenyl)-3-(2-methoxy-2′-methyl-[3,4′-bipyridin]-6-yl)-6-methyl-5,6-dihydro-4H-1,2,4-oxadiazine] | 6.26 |
| COc1nc(C2=NOC(C)C(c3cn(C)c4ncc(Cl)cc34)N2)ccc1-n1cnc(C)c1 (single isomer, unassigned; (+)) [Example 54B, (+)-5-(5-chloro-1-methyl-1H-pyrrolo [2,3-b]pyridin-3-yl)-3-(6-methoxy-5-(4-methyl-1H-imidazol-1-yl)pyridin-2-yl)-6-methyl-5,6-dihydro-4H-1,2,4-oxadiazine] | 8.20 |
| COc1nc(C2=NOC(C3CC3)C(c3cc(F)cc(F)c3)N2)ccc1-n1cnc(C)c1 (single isomer, unassigned; (+)) [Example 59A, (+)-6-cyclopropyl-5-(3,5-difluorophenyl)-3-(6-methoxy-5-(4-methyl-1H-imidazol-1-yl)pyridin-2-yl)-5,6-dihydro-4H-1,2,4-oxadiazine] | 7.68 |
| COc1nc(C2=NOC(C)C(c3ccc(Cl)cc3)N2)ccc1-n1cnc(Cl)c1 (single isomer, unassigned; (+)) [Example 42B, (+)-3-(5-(4-chloro-1H-imidazol-1-yl)-6-methoxypyridin-2-yl)-5-(4-chlorophenyl)-6-methyl-5,6-dihydro-4H-1,2,4-oxadiazine] | 7.74 |
| COc1nc(C2=NOC(C)C(c3ccc(Cl)c(C(F)F)c3)N2)ccc1-n1cnc(C)c1 (single isomer, unassigned; (+)) [Example 55A, (+)-5-(4-chloro-3-(difluoromethyl)phenyl)-3-(6-methoxy-5-(4-methyl-1H-imidazol-1-yl)pyridin-2-yl)-6-methyl-5,6-dihydro-4H-1,2,4-oxadiazine] | 7.94 |
| COc1nc(C2=NOC(C)C(c3cn(C)c4ncc(C(F)(F)F)cc34)N2)ccc1-n1cnc(C)c1 (single isomer, unassigned; (-)) [44C or 45C, (−)-3-(6-methoxy-5-(4-methyl-1H-imidazol-1-yl)pyridin-2-yl)-6-methyl-5-(1-methyl-5-(trifluoromethyl)-1H-pyrrolo[2,3-b]pyridin-3-yl)-5,6-dihydro-4H-1,2,4-oxadiazine] | ~5.86 |
| COc1nc(C2=NOC(C)C(c3cn(C)c4cc(F)c(F)cc34)N2)ccc1-n1cnc(C)c1 (single isomer, unassigned; (+)) [Example 39D, (+)-5-(5,6-difluoro-1-methyl-1H-indol-3-yl)-3-(6-methoxy-5-(4-methyl-1H-imidazol-1-yl)pyridin-2-yl)-6-methyl-5,6-dihydro-4H-1,2,4-oxadiazine] | 8.36 |
| COc1nc(C2=NOC(C)C(c3cn(C)c4cc(F)c(Cl)cc34)N2)ccc1-n1cnc(C)c1 (single isomer, unassigned; (-)) [Example 21C, (−)-5-(5-chloro-6-fluoro-1-methyl-1H-indol-3-yl)-3-(6-methoxy-5-(4-methyl-1H-imidazol-1-yl)pyridin-2-yl)-6-methyl-5,6-dihydro-4H-1,2,4-oxadiazine] | 6.43 |
| COc1nc(C2=NOCC(C)(c3cn(C)c4ccccc34)N2)ccc1-n1cnc(C)c1 (single isomer, unassigned; (+)) [Example 26A, (+)-3-[3-[6-methoxy-5-(4-methyl-1H-imidazol-1-yl)pyridin-2-yl]-5-methyl-5,6-dihydro-4H-1,2,4-oxadiazin-5-yl]-1-methyl-1H-indole] | 7.32 |
| COc1nc(C2=NOC(C3CC3)C(c3ccc(Cl)cc3)N2)ccc1-n1cnc(C)c1 (stereo not drawn) [Example 20A, (−)-cis-5-(4-chlorophenyl)-6-cyclopropyl-3-[6-methoxy-5-(4-methyl-1H-imidazol-1-yl)pyridin-2-yl]-5,6-dihydro-4H-1,2,4-oxadiazine] | 5.75 |
